US20080299176A1, “DRUG DELIVERY DEVICE COMPRISING CROSSLINKED POLYURETHANE-SILOXANE-CONTAINING COPOLYMERS” (priority 2007, published 2008)

Assay: Diffusion of FA through the copolymer membranes (Valia-Chien diffusion apparatus)
Type: physicochemical
Conditions: membrane of Example 5 composition, thickness 100 μm; PBS, 37° C.; FA 2 mg in donor cell; HPLC at 238 nm
Experimental: The diffusion was carried out using Valia-Chien diffusion apparatus. FA and membranes with a composition described in Example 5 were used. FA (2 mg) and PBS (3.2 mL) were added to each of the donor cells, and 3.2 mL PBS were added in each of the receptor cells. The cells were capped and the temperature was kept at 37° C. using a circulating water bath. At given time intervals, the diffusion media in the receptor cells were removed and replaced by fresh PBS. FA concentration in the release media was determined using a set of HP series 1100 HPLC instruments equipped with a degasser, a binary pump, an auto sampler and a DAD detector. The column used was an Altima C18 (5μ, 250 mm×4.6 mm). The mobile phase was 40% ACN in water and the flow rate was 1.0 mL/m in. The eluted FA was detected at 238 nm. The concentration of FA in the media was directly determined using HPLC. The diffusion rate of FA through the copolymer membranes with a thickness of 100 μm was estimated to be 1.4 μg/cm^2/hour.

SMILES: CC1(C)O[C@@H]2C[C@H]3[C@@H]4C[C@H](F)C5=CC(=O)C=C[C@]5(C)[C@@]4(F)[C@@H](O)C[C@]3(C)[C@]2(C(=O)CO)O1 [FA, fluocinolone acetonide]
- diffusion rate of FA through the copolymer membranes: 1.4 μg/cm^2/hour
